Key:
Assay type in all cases: cell-based, human
[1] = tested on: pAMPK in CD4 and CD8 T cells; assay: Extracellular ADO uptake assay via pAMPK staining; settings: antagonist 12 µM, 50 µM exogenous adenosine, n=7 healthy donors
Method: Experimental setup was adopted from a previous study whereby AR antagonist was added to pretreat cells before exogenous adenosine treatment for intracellular and cytokine staining.[37] In brief, PBMCs were treated with 12 µM of A2BAR antagonists for 90 min before the addition of 50 µM of adenosine for 2 hours. Cells were harvested after 3 hours of CD3/CD28 bead stimulation before intracellular staining with phosphor-AMPK (Thr183, Thr172) rabbit primary antibody (Thermo Fisher Scientific) and antirabbit secondary antibody (BD biosciences).
Figure 4 Rescue of lymphocyte proinflammatory cytokine production IFNy and perforin by A2BAR antagonism. (A,B) Inhibition of extracellular adenosine uptake via phosphorylated-AMP activated protein kinase (pAMPK) staining (n=7 healthy donors). Production of proinflammatory cytokines—(C,D) IFNy and (E) perforin in CD4 (n=5 healthy donors) and CD8 (n=6 healthy donors) T cells. Expression of CD69 adhesion molecule in (F). CD4 (n=7 healthy donors) and (G) CD8 (n=4 healthy donors) T cells. A2BAR antagonist 12 µM was added. Outlier is presented as diamond shape and defined by Tukey’s rule, which is not included in statistical analysis. Box plots with minimum, first quartile, median, third quartile, and maximum are presented. Normalized fold change is based on percent values compared with untreated controls. Unpaired and non-parametric statistical analysis—Mann-Whitney test was performed against untreated control with *p<0.05, **p<0.01, ***p<0.001, and ****p<0.0001.

[2] = tested on: breast cancer TILs against autologous tumor cells; assay: Chromium (51Cr) release cytotoxicity assay, breast cancer TILs; settings: synthetic ADO, 48 hours
Method: Chromium (51Cr) release cytotoxicity assay
Chromium (51Cr) release assay was used to measure the autologous TILs-mediated cytotoxicity against the established patient-derived breast and […] cell lines. Briefly, breast and sarcoma tumor cells were labelled with 51Cr (PerkinElmer) as target cells and seeded on 96-well V-bottom plate (Corning) at 5 000cells/well. Effector TILs were added at the indicated Effector: Target (E:T) ratios. The supernatants were collected carefully into LUMA plates (PerkinElmer) after 24 and 48 hours of co-culture. After drying overnight, radioactivity of the plate was read with MicroBeta2 (PerkinElmer).
Relative adenosine production assay
An ectonucleotidase CD73 assay was optimized to measure the relative ADO production based on competitive AMP blockade and presence of CD73+ cells. Day five patient-derived sarcoma spheroids were digested and split into triplicates in X-VIVO20 and 1% PS culture media with an excessive amount of AMP at 0.4mM (Sigma-Aldrich) incubated for 30 minutes.
After 1500 RPM was applied for three minutes, 25 μL supernatant were removed and mixed with 25 μL of 200 μM ATP (Sigma-Aldrich) in the same media. 25 μL of this mixture was added to a white opaque OptiPlate (PerkinElmer) containing 25 μL Cell-Titer Glo reagent (Promega, US). Relative luminescence unit (RLU) can be read on SPARK 10M plate reader with an integration time of 100ms. […]

[3] = tested on: healthy donor T cells (PBMCs) and NK cells; assay: CFSE proliferation assay with exogenous adenosine; settings: exogenous adenosine 0.1 mM, antagonist 12 µM; for Rescue of lymphocyte (T and NK cell) proliferation: 3 days (T) and 6 days (NK); for Rescue of NK cell proliferation: 6 days
Method: Freshly isolated PBMCs and NK cells were stained with 5 µM FITC-conjugated carboxyfluorescein succinimidyl ester (CFSE, BioLegend) in phosphate-buffered saline (PBS) (Life Technologies) at room temperature for 5 min. CSFE stained cells were washed with flow cytometer buffer three times. CSFE-labeled healthy PBMCs and NK cells were cultured in 96-well plates with X-VIVO20% and 1% PS for 3 and 6 days, respectively. Healthy PBMCs were incubated with Human T-activator CD3/CD28 beads at 1:4 ratio (Thermo Fisher Scientific) and IL-2 (Novartis) at 100 IU/mL. Healthy donor NK cells were incubated with 1000 IU/mL IL-2 only. 2×10^5 PBMCs and 5×10^4 NK cells were counted for treatment with ADO (Sigma-Aldrich) and 12 μM of A2BAR antagonist at the same day.
Figure 3 Rescue of lymphocyte proliferation by of A2BAR antagonism. Relative proliferation of: (A) CD45RA- CD4 T cells, (B) CD45RA+ CD4 T cells, (C) CD45RA- CD8 T cells, (D) CD45RA+ CD8 T cells, and (E) NK cells, after incubation with exogenous adenosine 0.1 mM and A2BAR antagonist 12 µM for 3 (A–D) and 6 (E) days. (n=10 healthy donors) CD45RA expression differentiates naïve and effector T cells from central and effector memory T cells. Box plots with minimum, first quartile, median, third quartile, and maximum are presented. Unpaired and non-parametric statistical analysis—Mann-Whitney test was performed against untreated control with *p<0.05, **p<0.01, ***p<0.001, and ****p<0.0001. (F–J) Representative CFSE histogram on the corresponding lymphocyte subset. CFSE, carboxyfluorescein succinimidyl ester.

Structure (SMILES)	pAMPK (extracellular ADO uptake) in CD8 T cells [1]	Rescue of killing of breast cancer TILs against autologous tumor cells [2]	Rescue of lymphocyte (T and NK cell) proliferation [3]	Rescue of proliferation of CD45RA+ (naïve and effector) CD8 T cells ([3]; 3 days, n=10 healthy donors)	Rescue of proliferation of CD45RA+ CD4 T cells ([3]; 3 days, n=10 healthy donors)	Rescue of proliferation of CD45RA- CD4 T cells (central and effector memory) ([3]; 3 days, n=10 healthy donors)	Rescue of NK cell proliferation ([3]; n=10 healthy donors)	pAMPK (extracellular ADO uptake) in CD4 T cells [1]	Rescue of proliferation of T cell subsets ([3]; 3 days, n=10 healthy donors)
CC1=C(C(=O)OC(C)C)C(c2ccoc2)n2c(nc3cc(Cl)ccc32)N1 (stereo not shown) [ISAM-M89A]	significantly inhibited ADO uptake	rescued killing	did not restore the proliferation						
CC1=C(C(=O)OC(C)C)C(c2ccco2)n2c(nc3ccccc32)N1 (stereo not shown) [ISAM-140, isopropyl 4-(furan-2-yl)−2-methyl-1,4-dihydrobenzo[4 5] imidazo[1,2 a]pyrimidine-3-carboxylate]			improved immune cell proliferation	rescued the proliferation	rescued the proliferation	rescued the proliferation	rescued the proliferation		
CC1=C(C(=O)OC(C)C)C(c2ccco2)n2c(nc3ccccc32)N1Cc1ccccc1F (stereo not shown) [ISAM-R56A]	significantly downregulated pAMPK	rescued killing					significantly rescued	significantly downregulated pAMPK	did not restore the proliferation
